{"source": "patent US20020169101A1", "about": "“Treatment of sexual dysfunction” (priority 1999, published 2002)", "key": {"[1]": {"test": "Plasma sexual hormone levels in ovariectomised female rats (radioimmunoassay)", "assay_type": "in vivo, rat", "experimental": "Ovariectomised adult female Sprague Dawley rats (180-200 g) were housed in groups of 6 in a reversed lighting system of 12 h light:dark (lights off 7.00-19.00 h). They were used for the experiments at least two weeks after ovariectomy. Forty eight hours before tests, the animals were primed with oestradiol benzoate (5 μg/0.1 ml in corn oil, s.c.). Progesterone (0.5 mg/0.1 ml, in corn oil, s.c.) was administered 4 h before blood collection, as a positive control. Compound (1) (3-10 mg/kg, i.p.) was administered in 50% 2-hydroxypropyl-β-cyclodextrin, 1 h prior to blood collection. Blood was collected from the trunk, after decapitation. It was immediately centrifuged (3500 r.p.m., 4° C., 5 min) and the plasmas frozen until assayed for hormonal content, using commercially available radioimmunoassay kits (^125I-labelled hormones) for oestradiol, progesterone, LH, FSH and prolactin."}, "[2]": {"test_system": "sexual behaviour of sexually dysfunctional male rats", "test": "Sexual behaviour of fluoxetine-induced sexually dysfunctional male rats", "assay_type": "in vivo, rat", "details": "fluoxetine-pretreated rats, Compound (1) 15 mg/kg or yohimbine 2 mg/kg i.p. 1 h before test", "experimental": "Sprague Dawley male rats (Charles River, UK) were kept, 4 rats per cage, in a reversed lighting regime (12:12 hours, lights off at 5.00 h), with free access to food and water. The rats were pre-selected by being presented with a receptive female at 4 days intervals, i.e. every third day (having 2 clear days between presentations) until completing 6-7 trials of baseline determination. The animals showing consistently vigorous behaviour (ejaculatory latencies <300s) were chosen for further experiments. Animals were treated for 3 consecutive days with either vehicle (water) or fluoxetine (20 mg/kg, i.p., in a 2 ml/kg dosing volume). On the fourth day, the animals treated with water received vehicle (veh+veh) and the animals treated with fluoxetine received one of the three following treatments: Compound (1) (15 mg/kg, dissolved in 50% 2-hydroxypropyl-β-cyclodextrin in saline), vehicle (cyclodextrine), or yohimbine (2 mg/kg dissolved in water). All treatments were administered i.p. in a 1 ml/kg volume, 1 h before tests.\nFor all the sexual behaviour tests, the males were placed in an observation arena (50-60 cm diameter), starting 5 hours into the dark cycle and observed under red illumination. Three to 4 minutes after placing the male in the arena, a receptive female (ovariectomised, bearing a 7 mm Silastic implant of oestradiol benzoate) was introduced to the arena and the following parameters noted: Mount Latency: time (in seconds) taken between introduction of female and first mount. A maximum time of 15 minutes (900 seconds) was allowed, and the test terminated if no mounts were recorded within that time (FIG. 16), Ejaculation Latency: time (in seconds) taken from first intromission to ejaculation. A maximum time of 30 minutes (1800 seconds) was given, and the test terminated if ejaculation was not achieved in that time (FIG. 17), Percentage of males achieving ejaculation within 30 minutes was calculated (FIG. 18).\nA one-way ANOVA followed by Dunnett's t test was used to compare the fluoxetine+vehicle group and other groups for mount and ejaculatory latencies. Percentage of animals ejaculating was analysed using a Chi-square test followed by Fisher's test. (*: P<0.05, **: P<0.01, ***: P<0.001; n=15-19)."}, "[3]": {"test_system": "female rat sexual proceptivity", "test": "Female rat sexual proceptivity test (time investigating male vs female stimulus)", "assay_type": "in vivo", "experimental": "Ovariectomised adult female Sprague Dawley rats (180-200 g, from Charles River) were housed in groups of 6 in a reversed lighting system of 12 h light:dark (lights off 7.00-19.00 h). Two weeks after ovariectomy they were used for sexual activity tests. The experiments started at least 5 h into the dark period.\nTests were carried out in a circular arena of 90 cm diameter, surrounded by a 30 cm high wall. Two small cages with wire-mesh front (15×15 cm) are fixed into the wall such that the front of the cage is <> with the wall and the 2 cages are opposite each other. They contained two stimuli animals: an intact sexually experienced male and a receptive female (ovariectomised, primed with 5 μg oestradiol benzoate dissolved in corn oil and injected subcutaneously 48 hours before the test and with 0.5 mg of progesterone four hours before the test). Sexually naive test and control animals were used. Forty eight hours before the tests, both the test and control animals were primed with 5 μg oestradiol benzoate. For animals used as positive controls, progesterone (0.5 mg/0.1 ml) was dissolved in corn oil and administered subcutaneously (s.c.), 4 h before the test. Test and control animals were introduced one at a time for 10 minute periods into the arena. During the 10 min test, the time that the test or positive control animal spent investigating each stimulus animal was noted. The arena was thoroughly cleaned between animals. The position of the male/female stimuli boxes was randomised between animals, in order to avoid place preference. The difference in the percentage of time spent investigating the male minus the female stimuli was calculated, out of the total time spent investigating stimuli animals.\nCompound (1) was dissolved in 100% β-cyclodextrin and then diluted with saline to a final solution of 50% 2-hydroxypropyl-β-cyclodextrin. It was administered intraperitoneally (i.p.) at doses of 3 and 10 mg/kg, in a dosing volume of 1 ml/kg, 1 h before tests. Progesterone (0.5 mg/0.1 ml) was dissolved in corn oil and administered subcutaneously (s.c.), 4 h before test, as a positive control.\nOvariectomised adult female Sprague Dawley rats (180-200 g) were housed in groups of 5 in a reversed lighting system of 12 h light:dark (lights off 5.00-17.00 h). They were used for the experiments at least two weeks after ovariectomy. Forty eight hours before tests, the animals were primed with oestradiol benzoate (5 μg/[…] in corn oil, s.c.). On day 1, progesterone (0.5 mg/0.1 ml, in corn oil, s.c.) was administered to one of the groups 4 h before tests, as a positive control. Compound (1) (15 mg/kg, i.p.) was administered in 50% 2-hydroxypropyl-β-cyclodextrin, 1 h before tests. The test lasted 10 minutes and was carried out as described before. The difference in the percentage of time spent investigating the male minus the female stimuli was calculated, out of the total time spent investigating stimuli animals. Animals were submitted to a test on day 1 and on day 15. From day 2 to 14 the Compound (1) group received a daily injection of the compound (15 mg/kg, i.p.), while both the vehicle and the progesterone groups received an injection of vehicle. On day 15 the test took place again, as described for day 1.\nOvariectomised female rats (Sprague Dawley, obtained from Charles River, UK) were stereotaxically implanted (coordinates 0.89 mm behind Bregma, 1.3 mm lateral and 2.5 mm vertical) with stainless steel cannulae (6 mm long, O.D. 0.75 mm), held in place with dental cement. Animals were housed in groups of three and returned to a reversed lighting system of 12 h light:dark (lights off 5.00-17.00 h). Correct placement of the cannulae was assessed post-mortem. Rats were used for tests two weeks after ovariectomy (one week after cannulation). The experiments started at least 5 h into the dark period. […]"}}, "note": "“Also recorded” adds a separate entry of the source.", "data": [{"smiles": "COc1ccc(C2(CNC(=O)[C@](C)(Cc3c[nH]c4ccccc34)NC(=O)Nc3ccc([N+](=O)[O-])cc3)CCCCC2)nc1", "note": "[Compound (1), (S) 3-(1H-Indol-3-yl)-N-[1-(5-methoxy-pyridin-2-yl)-cyclohexyl-methyl]-2-methyl-2-[3-(4-nitro-phenyl)-ureido]-propionamide]", "values": [{"measurement": "plasma levels of progesterone", "setting": "[1]; Compound (1) 3-10 mg/kg i.p. 1 h, progesterone 0.5 mg s.c. 4 h before blood collection, vs vehicle (FIG. 6)", "value": "no effect"}, {"measurement": "plasma levels of LH", "setting": "[1]; Compound (1) 3-10 mg/kg i.p. 1 h, progesterone 0.5 mg s.c. 4 h before blood collection, vs vehicle (FIG. 9)", "value": "no effect"}, {"measurement": "plasma levels of oestradiol", "setting": "[1]; Compound (1) 3-10 mg/kg i.p. 1 h before blood collection (FIG. 7)", "value": "no effect"}, {"measurement": "plasma levels of prolactin", "setting": "[1]; Compound (1) 3-10 mg/kg i.p. 1 h before blood collection (FIG. 8)", "value": "no effect"}, {"measurement": "plasma levels of FSH", "setting": "[1]; Compound (1) 3-10 mg/kg i.p. 1 h before blood collection (FIG. 10)", "value": "no effect"}, {"measurement": "Mount Latency", "setting": "[2]; vs fluoxetine+vehicle (FIG. 16)", "value": "significantly decreased"}, {"measurement": "Ejaculation Latency", "setting": "[2]; vs fluoxetine+vehicle (FIG. 17)", "value": "significantly decreased"}, {"measurement": "percentage of animals ejaculating", "setting": "[2]; vs fluoxetine+vehicle (FIG. 18)", "value": "increasing the percentage of animals ejaculating"}, {"measurement": "body weight, general behaviour, tolerability on repeated administration", "setting": "[3]; 15 mg/kg i.p. daily for 15 days, female rats", "value": "no changes in body weight or general behaviour; also recorded: well tolerated"}, {"measurement": "proceptivity on day 1 vs vehicle", "setting": "[3]; Compound (1) 15 mg/kg i.p. 1 h before test, progesterone 0.5 mg s.c. 4 h before test (FIG. 3)", "value": "stimulatory effect on proceptivity"}, {"measurement": "percentage of time spent investigating the male stimulus", "setting": "[3]; i.c.v., 3-30 μg/rat, 10 min before test (FIG. 4)", "value": "dose-dependently (3-30 μg/rat) increased the percentage of time spent investigating the male stimulus"}, {"measurement": "percentage of time spent investigating the male stimulus", "setting": "[3]; i.p., 3 and 10 mg/kg, 1 h before test, vs vehicle (FIG. 1)", "value": "dose-dependently (3 mg/kg-10 mg/kg) increased the percentage of time spent investigating the male stimulus"}]}]}
